Among the data in patent US20120122924A1, “NAMPT INHIBITORS” (ABBOTT LABORATORIES, priority 2010, published 2012) are IC50 values, retold here.

The assay concerns the target recombinant, human, C-terminally-His tagged NAMPT (Homo sapiens, UniProt P43490). In words: Time-Resolved Fluorescence Resonance Energy Transfer (TR-FRET) binding assay of NAMPT. As to conditions: 6.8 nM NAMPT, 200 nM probe (Oregon Green 488-conjugated APO866), 1 nM Tb-anti-His antibody, 2-3 hours. As to the method:
Determination of the utility of compounds having Formula (I) as binders to and inhibitors of NAMPT was performed using a Time-Resolved Fluorescence Resonance Energy Transfer (TR-FRET) binding assay.
Time-Resolved Fluorescence Resonance Energy Transfer (TR-FRET) Binding Assay of NAMPT
The assay was carried out in 18 uL low volume plates (Owens Corning) in reaction buffer (50 mM HEPES (NaOH), pH 7.5, 100 mM NaCl, 10 mM MgCl2, 1 mM DTT, 1% Glycerol) using 6.8 nM recombinant, human, C-terminally-His tagged NAMPT, 1 nM Tb-anti-His antibody (Invitrogen, Cat # PV5895), and 200 nM probe (Oregon Green 488-conjugated APO866; A-1251667.0). Plates were covered, and reactions were carried out for 2-3 hours. Plates were read with Envision (Laser Lantha low volume protocol) after 2 to 3 hours. Excitation was carried out at 337 nm, and the ratio of emission of Oregon Green (520 nm) to terbium (492 nm) was determined and used to calculate IC50 values of test compounds.
On the technique in general: In TR-FRET formats the signal depends on donor and acceptor labels being close together.

Sequence of recombinant, human, C-terminally-His tagged NAMPT (P43490 whole entry): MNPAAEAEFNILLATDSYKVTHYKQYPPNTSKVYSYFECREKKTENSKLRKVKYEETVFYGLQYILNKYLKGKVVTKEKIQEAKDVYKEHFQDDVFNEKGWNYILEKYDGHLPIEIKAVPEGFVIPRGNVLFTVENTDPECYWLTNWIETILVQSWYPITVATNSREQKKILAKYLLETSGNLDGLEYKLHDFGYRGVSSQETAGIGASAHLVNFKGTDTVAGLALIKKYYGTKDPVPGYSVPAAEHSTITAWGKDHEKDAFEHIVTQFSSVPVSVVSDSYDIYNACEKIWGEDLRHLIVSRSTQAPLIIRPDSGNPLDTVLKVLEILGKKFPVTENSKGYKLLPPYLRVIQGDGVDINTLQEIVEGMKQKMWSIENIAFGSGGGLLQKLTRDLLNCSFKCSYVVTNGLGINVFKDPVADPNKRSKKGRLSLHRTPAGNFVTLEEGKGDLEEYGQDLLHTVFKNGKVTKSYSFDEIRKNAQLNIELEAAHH

For `CCC(C)(C)C(=O)Nc1ccc(NC(=O)N2CCc3ccccc3C2)cc1` [Example 70, N-{4-[(2,2-dimethylbutanoyl)amino]phenyl}-3,4-dihydroisoquinoline-2(1H)-carboxamide], the IC50 – broadly, the point on the concentration scale where inhibition reaches its midpoint – turned out to be 109 nM.

For `CC(C)(C)CC(=O)Nc1ccc(NC(=O)N2CCc3ccccc3C2)cc1` [Example 71, N-{4-[(3,3-dimethylbutanoyl)amino]phenyl}-3,4-dihydroisoquinoline-2(1H)-carboxamide], the IC50 is 2.75 nM.

As to `CCCCCCC(=O)Nc1ccc(NC(=O)N2CCc3ccccc3C2)cc1` [Example 72, N-[4-(heptanoylamino)phenyl]-3,4-dihydroisoquinoline-2(1H)-carboxamide], the IC50 came to 16.8 nM.

As for `O=C(CCC(F)(F)F)Nc1ccc(NC(=O)N2CCc3ccccc3C2)cc1` [Example 73, N-{4-[(4,4,4-trifluorobutanoyl)amino]phenyl}-3,4-dihydroisoquinoline-2(1H)-carboxamide], the IC50 was determined as 33.2 nM.

Turning to `COCCOCC(=O)Nc1ccc(NC(=O)N2CCc3ccccc3C2)cc1` [Example 74, N-(4-{[(2-methoxyethoxy)acetyl]amino}phenyl)-3,4-dihydroisoquinoline-2(1H)-carboxamide], the IC50 was 86.2 nM.

For `CSCCC(=O)Nc1ccc(NC(=O)N2CCc3ccccc3C2)cc1` [Example 76, N-(4-{[3-(methylthio)propanoyl]amino}phenyl)-3,4-dihydroisoquinoline-2(1H)-carboxamide], the IC50 came to 14.8 nM.

Regarding `O=C(CC1CCCC1)Nc1ccc(NC(=O)N2CCc3ccccc3C2)cc1` [Example 77, N-{4-[(cyclopentylacetyl)amino]phenyl}-3,4-dihydroisoquinoline-2(1H)-carboxamide], the IC50 came out at 5.16 nM.

Turning to `O=C(Nc1ccc(NC(=O)N2CCc3ccccc3C2)cc1)C1CCCCC1` [Example 78, N-{4-[(cyclohexylcarbonyl)amino]phenyl}-3,4-dihydroisoquinoline-2(1H)-carboxamide], the IC50 is 66.3 nM.

With `O=C(CC1CCCCC1)Nc1ccc(NC(=O)N2CCc3ccccc3C2)cc1` [Example 79, N-{4-[(cyclohexylacetyl)amino]phenyl}-3,4-dihydroisoquinoline-2(1H)-carboxamide], the IC50 is 5.3 nM.

As to `O=C(Nc1ccc(NC(=O)N2CCc3ccccc3C2)cc1)c1ccccc1` [Example 80, N-[4-(benzoylamino)phenyl]-3,4-dihydroisoquinoline-2(1H)-carboxamide], the IC50 is 191 nM.

Regarding `Nc1ccc(CCC(=O)Nc2ccc(NC(=O)N3CCc4ccccc4C3)cc2)cc1` [Example 82, N-(4-{[3-(4-aminophenyl)propanoyl]amino}phenyl)-3,4-dihydroisoquinoline-2(1H)-carboxamide], the IC50 is 49 nM.

In the case of `O=C(Nc1ccc(NC(=O)N2CCc3ccccc3C2)cc1)c1ccoc1` [Example 83, N-[4-(3-furoylamino)phenyl]-3,4-dihydroisoquinoline-2(1H)-carboxamide], the IC50 was found to be 269 nM.

`Cc1cc(C(=O)Nc2ccc(NC(=O)N3CCc4ccccc4C3)cc2)c(C)o1` [Example 84, N-{4-[(2,5-dimethyl-3-furoyl)amino]phenyl}-3,4-dihydroisoquinoline-2(1H)-carboxamide]: the half-maximal inhibitory concentration (IC50) amounted to 85.8 nM.

As for `O=C(Nc1ccc(NC(=O)N2CCc3ccccc3C2)cc1)c1ccsc1` [Example 85, N-{4-[(3-thienylcarbonyl)amino]phenyl}-3,4-dihydroisoquinoline-2(1H)-carboxamide], the IC50 came out at 242 nM.

As to `O=C(Nc1ccc(NC(=O)N2CCc3ccccc3C2)cc1)c1ccc[nH]1` [Example 86, N-{4-[(1H-pyrrol-2-ylcarbonyl)amino]phenyl}-3,4-dihydroisoquinoline-2(1H)-carboxamide], the IC50 stood at 377 nM.

`O=C(Nc1ccc(NC(=O)N2CCc3ccccc3C2)cc1)c1cncs1` [Example 87, N-{4-[(1,3-thiazol-5-ylcarbonyl)amino]phenyl}-3,4-dihydroisoquinoline-2(1H)-carboxamide]: the IC50 is 116 nM.
